Measured values: patent US20260262643A1, “HERBICIDAL BENZOXAZINES” (FMC CORPORATION, priority 2022, published 2026)

Key:
blackgrass [1] = experiment: Test C preemergence; format: in vivo, Alopecurus myosuroides; conditions: 0 to 100 scale (0 no effect, 100 complete control); for Plant response rating, Blackgrass: Preemergence, 500 g ai/ha, visual rating after 10 days; for Blackgrass plant response rating: Test C, preemergence, 125 g ai/ha
Procedure, shortened: (§1)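 Seeds in loam–sand blend received preemergence directed soil spray of test chemicals in non-phytotoxic solvent with surfactant; postemergence treatment was applied at one- to two-leaf stage (2–10 cm). After 10 days in greenhouse, injury rated visually versus untreated controls, 0 (no effect) to 100 (complete control).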

pigweed, palmer [2] = experiment: Test C preemergence; format: in vivo, Amaranthus palmeri; conditions: 0 to 100 scale (0 no effect, 100 complete control); for Plant response rating, Pigweed, Palmer: Preemergence, 500 g ai/ha, visual rating after 10 days; for Pigweed, Palmer plant response rating: Test C, preemergence, 125 g ai/ha
Procedure, shortened: as §1

barnyardgrass [3] = experiment: Test C postemergence; format: in vivo, Echinochloa crusgalli; conditions: 10 days
Procedure, shortened: as §1

corn [4] = experiment: Test C postemergence; format: in vivo, Zea mays; conditions: 10 days
Procedure, shortened: as §1

oat, wild [5] = experiment: Test C postemergence; format: in vivo, Avena fatua; conditions: 10 days
Procedure, shortened: as §1

soybean [6] = experiment: Test C postemergence; format: in vivo, Glycine max; conditions: 10 days
Procedure, shortened: as §1

pigweed, palmer [7] = experiment: Test C postemergence; format: in vivo, Amaranthus palmeri; conditions: 10 days
Procedure, shortened: as §1

corn [8] = experiment: Test C preemergence; format: in vivo, Zea mays; conditions: 0 to 100 scale (0 no effect, 100 complete control); for Plant response rating, Corn: Preemergence, 500 g ai/ha, visual rating after 10 days; for Corn plant response rating: Test C, preemergence, 125 g ai/ha
Procedure, shortened: as §1

galium = experiment: Test C postemergence; format: in vivo, Galium aparine; conditions: 10 days
Procedure, shortened: as §1

ragweed [9] = experiment: Test C postemergence; format: in vivo, Ambrosia artemisiifolia; conditions: 10 days
Procedure, shortened: as §1

rice = experiment: Test D flooded paddy test; format: in vivo, Oryza sativa; conditions: 250 g ai/ha, applied to paddy water, visual rating after 13 to 14 days, scale 0 to 100 (0 no effect, 100 complete control)
Procedure, shortened: (§2)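 Plants grown to the 2-leaf stage; pots flooded to 3 cm above soil at treatment and held at that depth throughout. Test compounds applied directly to the paddy water. After 13 to 14 days in a greenhouse, response was rated visually versus controls on a 0 (no effect) to 100 (complete control) scale.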

green foxtail = experiment: Test C preemergence; format: in vivo, Setaria viridis; conditions: 0 to 100 scale (0 no effect, 100 complete control); for Plant response rating, Foxtail, Green: Preemergence, 500 g ai/ha, visual rating after 10 days; for Foxtail, Green plant response rating: Test C, preemergence, 125 g ai/ha
Procedure, shortened: as §1

ragweed [10] = experiment: Test C preemergence; format: in vivo, Ambrosia artemisiifolia; conditions: 0 to 100 scale (0 no effect, 100 complete control); for Plant response rating, Ragweed: Preemergence, 500 g ai/ha, visual rating after 10 days; for Ragweed plant response rating: Test C, preemergence, 125 g ai/ha
Procedure, shortened: as §1

ryegrass, Italian [11] = experiment: Test C preemergence; format: in vivo, Lolium multiflorum; conditions: 0 to 100 scale (0 no effect, 100 complete control); for Plant response rating, Ryegrass, Italian: Preemergence, 500 g ai/ha, visual rating after 10 days; for Ryegrass, Italian plant response rating: Test C, preemergence, 125 g ai/ha
Procedure, shortened: as §1

barnyardgrass [12] = experiment: Test C preemergence; format: in vivo, Echinochloa crusgalli; conditions: 0 to 100 scale (0 no effect, 100 complete control); for Plant response rating, Barnyardgrass: Preemergence, 500 g ai/ha, visual rating after 10 days; for Barnyardgrass plant response rating: Test C, preemergence, 125 g ai/ha
Procedure, shortened: as §1

kochia [13] = experiment: Test C postemergence; format: in vivo, Bassia scoparia; conditions: 10 days
Procedure, shortened: as §1

soybean [14] = experiment: Test C preemergence; format: in vivo, Glycine max; conditions: 0 to 100 scale (0 no effect, 100 complete control); for Plant response rating, Soybean: Preemergence, 500 g ai/ha, visual rating after 10 days; for Soybean plant response rating: Test C, preemergence, 125 g ai/ha
Procedure, shortened: as §1

wheat [15] = experiment: Test C preemergence; format: in vivo, Triticum aestivum; conditions: 0 to 100 scale (0 no effect, 100 complete control); for Plant response rating, Wheat: Preemergence, 500 g ai/ha, visual rating after 10 days; for Wheat plant response rating: Test C, preemergence, 125 g ai/ha
Procedure, shortened: as §1

ducksalad = experiment: Test D flooded paddy test; format: in vivo, Heteranthera limosa; conditions: 250 g ai/ha, applied to paddy water, visual rating after 13 to 14 days, scale 0 to 100 (0 no effect, 100 complete control)
Procedure, shortened: as §2

horseweed = experiment: Test C postemergence; format: in vivo, Erigeron canadensis; conditions: 10 days
Procedure, shortened: as §1

barnyardgrass [16] = experiment: Test D flooded paddy test; format: in vivo, Echinochloa crus-galli; conditions: 250 g ai/ha, applied to paddy water, visual rating after 13 to 14 days, scale 0 to 100 (0 no effect, 100 complete control)
Procedure, shortened: as §2

blackgrass [17] = experiment: Test C postemergence; format: in vivo, Alopecurus myosuroides; conditions: 10 days
Procedure, shortened: as §1

wheat [18] = experiment: Test C postemergence; format: in vivo, Triticum aestivum; conditions: 10 days
Procedure, shortened: as §1

sedge, umbrella = experiment: Test D flooded paddy test; format: in vivo, Cyperus difformis; conditions: 250 g ai/ha, applied to paddy water, visual rating after 13 to 14 days, scale 0 to 100 (0 no effect, 100 complete control)
Procedure, shortened: as §2

ryegrass, Italian [19] = experiment: Test C postemergence; format: in vivo, Lolium multiflorum; conditions: 10 days
Procedure, shortened: as §1

oat, wild [20] = experiment: Test C preemergence; format: in vivo, Avena fatua; conditions: 0 to 100 scale (0 no effect, 100 complete control); for Plant response rating, Oat, Wild: Preemergence, 500 g ai/ha, visual rating after 10 days; for Oat, Wild plant response rating: Test C, preemergence, 125 g ai/ha
Procedure, shortened: as §1

kochia [21] = experiment: Test C preemergence; format: in vivo, Bassia scoparia; conditions: 0 to 100 scale (0 no effect, 100 complete control); for Plant response rating, Kochia: Preemergence, 500 g ai/ha, visual rating after 10 days; for Kochia plant response rating: Test C, preemergence, 125 g ai/ha
Procedure, shortened: as §1

[22] = 125 g ai/ha, postemergence, 0 to 100 scale, 0 no effect, 100 complete control
[23] = Postemergence, 500 g ai/ha, visual 0 to 100 scale (0 no effect, 100 complete control)

## COC[C@H]1CN(C(=O)c2cc(-n3cnc(C4CCC4)n3)ccc2OC)c2cccc(Cl)c2O1 [Compound 236]
Blackgrass [1]
  Plant response rating, Blackgrass: 10
  Blackgrass plant response rating: 0
pigweed, palmer [2]
  Plant response rating, Pigweed, Palmer: 100
  Pigweed, Palmer plant response rating: 80
Barnyardgrass [3]; [22]
  Plant response rating, Barnyardgrass: 40
Barnyardgrass [3]; [23]
  Plant response rating, Barnyardgrass: 90
Corn [4]; [22]
  Plant response rating, Corn: 30
Corn [4]; [23]
  Plant response rating, Corn: 80
oat, wild [5]; [22]
  Plant response rating, Oat, Wild: 10
oat, wild [5]; [23]
  Plant response rating, Oat, Wild: 40
Soybean [6]; [22]
  Plant response rating, Soybean: 100
Soybean [6]; [23]
  Plant response rating, Soybean: 100
pigweed, palmer [7]; [22]
  Plant response rating, Pigweed, Palmer: 90
pigweed, palmer [7]; [23]
  Plant response rating, Pigweed, Palmer: 90
Corn [8]
  Plant response rating, Corn: 0
  Corn plant response rating: 0
galium; [22]
  Plant response rating, Galium: 100
galium; [23]
  Plant response rating, Galium: 100
Ragweed [9]; [22]
  Plant response rating, Ragweed: 80
Ragweed [9]; [23]
  Plant response rating, Ragweed: 90
rice
  Plant response rating, Rice (Flood): 0
Green foxtail
  Plant response rating, Foxtail, Green: 100
  Foxtail, Green plant response rating: 90
Ragweed [10]
  Plant response rating, Ragweed: 80
  Ragweed plant response rating: 20
ryegrass, Italian [11]
  Plant response rating, Ryegrass, Italian: 50
  Ryegrass, Italian plant response rating: 50
Barnyardgrass [12]
  Plant response rating, Barnyardgrass: 80
  Barnyardgrass plant response rating: 20
Kochia [13]; [22]
  Plant response rating, Kochia: 90
Kochia [13]; [23]
  Plant response rating, Kochia: 90
Soybean [14]
  Plant response rating, Soybean: 70
  Soybean plant response rating: 40
Wheat [15]
  Plant response rating, Wheat: 10
  Wheat plant response rating: 0
ducksalad
  Plant response rating, Ducksalad (Flood): 75
horseweed; [22]
  Plant response rating, Horseweed: 70
horseweed; [23]
  Plant response rating, Horseweed: 70
Barnyardgrass [16]
  Plant response rating, Barnyardgrass (Flood): 0
Blackgrass [17]; [22]
  Plant response rating, Blackgrass: 20
Blackgrass [17]; [23]
  Plant response rating, Blackgrass: 90
Wheat [18]; [22]
  Plant response rating, Wheat: 20
Wheat [18]; [23]
  Plant response rating, Wheat: 30
sedge, umbrella
  Plant response rating, Sedge, Umbrella (Flood): 95
ryegrass, Italian [19]; [22]
  Plant response rating, Ryegrass, Italian: 60
ryegrass, Italian [19]; [23]
  Plant response rating, Ryegrass, Italian: 90
oat, wild [20]
  Plant response rating, Oat, Wild: 30
  Oat, Wild plant response rating: 10
Kochia [21]
  Plant response rating, Kochia: 90
  Kochia plant response rating: 40

## COC[C@H]1CN(C(=O)c2cc(-n3cnc(C4CC4)n3)ccc2OC)c2cccc(Cl)c2O1 [Compound 235]
Blackgrass [1]
  Plant response rating, Blackgrass: 80
  Blackgrass plant response rating: 50
pigweed, palmer [2]
  Plant response rating, Pigweed, Palmer: 100
  Pigweed, Palmer plant response rating: 90
Barnyardgrass [3]; [22]
  Plant response rating, Barnyardgrass: 90
Barnyardgrass [3]; [23]
  Plant response rating, Barnyardgrass: 90
Corn [4]; [22]
  Plant response rating, Corn: 50
Corn [4]; [23]
  Plant response rating, Corn: 90
oat, wild [5]; [22]
  Plant response rating, Oat, Wild: 40
oat, wild [5]; [23]
  Plant response rating, Oat, Wild: 60
Soybean [6]; [22]
  Plant response rating, Soybean: 100
Soybean [6]; [23]
  Plant response rating, Soybean: 100
pigweed, palmer [7]; [22]
  Plant response rating, Pigweed, Palmer: 70
pigweed, palmer [7]; [23]
  Plant response rating, Pigweed, Palmer: 90
Corn [8]
  Plant response rating, Corn: 0
  Corn plant response rating: 20
galium; [22]
  Plant response rating, Galium: 100
galium; [23]
  Plant response rating, Galium: 100
Ragweed [9]; [22]
  Plant response rating, Ragweed: 70
Ragweed [9]; [23]
  Plant response rating, Ragweed: 80
rice
  Plant response rating, Rice (Flood): 15
Green foxtail
  Plant response rating, Foxtail, Green: 100
  Foxtail, Green plant response rating: 100
Ragweed [10]
  Plant response rating, Ragweed: 60
  Ragweed plant response rating: 30
ryegrass, Italian [11]
  Plant response rating, Ryegrass, Italian: 90
  Ryegrass, Italian plant response rating: 80
Barnyardgrass [12]
  Plant response rating, Barnyardgrass: 90
  Barnyardgrass plant response rating: 50
Kochia [13]; [22]
  Plant response rating, Kochia: 90
Kochia [13]; [23]
  Plant response rating, Kochia: 90
Soybean [14]
  Plant response rating, Soybean: 70
  Soybean plant response rating: 60
Wheat [15]
  Plant response rating, Wheat: 30
  Wheat plant response rating: 30
ducksalad
  Plant response rating, Ducksalad (Flood): 90
horseweed; [22]
  Plant response rating, Horseweed: 30
horseweed; [23]
  Plant response rating, Horseweed: 70
Barnyardgrass [16]
  Plant response rating, Barnyardgrass (Flood): 10
Blackgrass [17]; [22]
  Plant response rating, Blackgrass: 70
Blackgrass [17]; [23]
  Plant response rating, Blackgrass: 90
Wheat [18]; [22]
  Plant response rating, Wheat: 30
Wheat [18]; [23]
  Plant response rating, Wheat: 30
sedge, umbrella
  Plant response rating, Sedge, Umbrella (Flood): 90
ryegrass, Italian [19]; [22]
  Plant response rating, Ryegrass, Italian: 70
ryegrass, Italian [19]; [23]
  Plant response rating, Ryegrass, Italian: 100
oat, wild [20]
  Plant response rating, Oat, Wild: 80
  Oat, Wild plant response rating: 20
Kochia [21]
  Plant response rating, Kochia: 90
  Kochia plant response rating: 80
